Our source for the TGI values is PubChem BioAssay (NCI).

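Following 48 hours of exposure in 96-well plates, responses at five concentrations were used to interpolate endpoints linearly. TGI: total growth inhibition.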 Where a SMILES comes first, the peptide text is derived from it.

Among the test systems are ACHN renal; CCRF-CEM leukemia; COLO 205 colon; EKVX NSCLC; HOP-62 NSCLC; IGROV1 ovarian; KM12 colon; MCF7 breast; NCI-H522 lung; OVCAR-4 ovarian; OVCAR-5 ovarian; SF-539 CNS; SNB-75 CNS; T-47D breast; HS 578T breast.
Test in all cases: NCI tumour cell line growth inhibition, 48 h

Consider `CC(=O)NC(CO)C(=O)NC(Cc1ccc(O)cc1)C(=O)NCC(N)=O` (stereo not drawn) (Ac-Ser-Tyr-Gly-NH2; configuration not given here), for which the TGI in the test with ACHN renal, in the test with CCRF-CEM leukemia, with COLO 205 colon, with EKVX NSCLC, in the test with HOP-62 NSCLC and with IGROV1 ovarian was above 100 µM each time. For the same compound, the TGI in the test on KM12 colon, in the test with MCF7 breast, with NCI-H522 lung, in the test on OVCAR-4 ovarian, in the test on OVCAR-5 ovarian and in the test on SF-539 CNS was above 100 µM each time. Moreover, the TGI in the test on SNB-75 CNS and with T-47D breast was above 100 µM throughout.
As to `CC(C)(C)N=c1n(C(C)(C)C)oc(=O)n1-c1ccccc1`, the TGI with ACHN renal, with CCRF-CEM leukemia, in the test with COLO 205 colon, in the test on EKVX NSCLC, in the test on HOP-62 NSCLC and in the test on HS 578T breast was above 50 µM each time. Further, the TGI with IGROV1 ovarian, in the test with KM12 colon, in the test with MCF7 breast, in the test on NCI-H522 lung, in the test on OVCAR-4 ovarian and with OVCAR-5 ovarian was above 50 µM in each case. In addition, the TGI with SF-539 CNS and in the test on SNB-75 CNS was above 50 µM each time.
Take `Cc1ccccc1NC(=O)CSc1nnc(Cc2ccccc2)o1`: the TGI with ACHN renal, in the test on CCRF-CEM leukemia, with COLO 205 colon, with HOP-62 NSCLC, with IGROV1 ovarian and with KM12 colon was above 100 µM throughout. In addition, the TGI in the test on NCI-H522 lung, in the test with OVCAR-4 ovarian, in the test on OVCAR-5 ovarian, in the test on SF-539 CNS and with SNB-75 CNS was above 100 µM each time.
In the case of `COc1nc(OC)nc(Sc2ccc(Sc3ccc(Sc4nc(OC)nc(OC)n4)cc3)cc2)n1`, the TGI with ACHN renal, in the test with CCRF-CEM leukemia, in the test with COLO 205 colon, in the test on EKVX NSCLC, with IGROV1 ovarian and in the test with KM12 colon was above 100 µM throughout. In addition, the TGI in the test on NCI-H522 lung, in the test on OVCAR-4 ovarian, with OVCAR-5 ovarian, in the test with SF-539 CNS and with SNB-75 CNS was above 100 µM in each case.
On to `CCCOP(=S)(N1CC1)N1CC1`, for which the TGI with ACHN renal, with CCRF-CEM leukemia, in the test with COLO 205 colon, in the test with EKVX NSCLC, in the test on HOP-62 NSCLC and with IGROV1 ovarian was above 100 µM throughout. Besides, the TGI in the test with KM12 colon, in the test on NCI-H522 lung, in the test on OVCAR-4 ovarian, with OVCAR-5 ovarian, in the test on SF-539 CNS and in the test on SNB-75 CNS was above 100 µM throughout.
As to `Cn1nc(C(=O)N2CC(CCl)c3c2cc([N+](=O)[O-])c2ccccc32)cc1NC(=O)Nc1cc(C(=O)N2CC(CCl)c3c2cc([N+](=O)[O-])c2ccccc32)nn1C` (stereo not drawn), the TGI in the test with ACHN renal, with COLO 205 colon, in the test with EKVX NSCLC, in the test with HOP-62 NSCLC, with KM12 colon and in the test with MCF7 breast was above 100 µM each time. Further, the TGI was above 100 µM in the test with NCI-H522 lung; above 100 µM in the test with OVCAR-4 ovarian; above 100 µM in the test on OVCAR-5 ovarian; 70.2 µM in the test on SF-539 CNS; above 100 µM in the test with SNB-75 CNS; above 100 µM with T-47D breast.
In the case of `O=C(Nc1ccc(S(=O)(=O)Nc2ncccn2)cc1)c1c2ccccc2nc2ccccc12`, the TGI in the test with ACHN renal, with COLO 205 colon, in the test on EKVX NSCLC, in the test on HOP-62 NSCLC, with IGROV1 ovarian and in the test with KM12 colon was above 100 µM throughout. Also, the TGI in the test on MCF7 breast, with NCI-H522 lung, in the test with OVCAR-4 ovarian, in the test on OVCAR-5 ovarian, in the test with SF-539 CNS and in the test on SNB-75 CNS was above 100 µM throughout.
With `Cc1ccc(-n2cc(-c3ccc(Cl)cc3)c(C#N)c2N)cc1`, the TGI is 50 µM in the test with ACHN renal; above 100 µM in the test with CCRF-CEM leukemia; 27.1 µM with COLO 205 colon; 30.5 µM in the test on EKVX NSCLC; 31.9 µM with HOP-62 NSCLC; 17.2 µM in the test on HS 578T breast. Moreover, the TGI is 29.9 µM in the test on IGROV1 ovarian; 28.2 µM in the test on MCF7 breast; 24.7 µM with NCI-H522 lung; 28.4 µM in the test with OVCAR-4 ovarian; 30.6 µM in the test with OVCAR-5 ovarian; 30.9 µM in the test on SF-539 CNS. The compound also had a TGI in the test on SNB-75 CNS of 47.9 µM.
Turning to `Cc1ccc(F)c2c(=O)cc(-c3ccccc3)[nH]c12`, the TGI in the test on ACHN renal, in the test with CCRF-CEM leukemia, in the test with COLO 205 colon, with HOP-62 NSCLC, in the test with IGROV1 ovarian and in the test on KM12 colon was above 100 µM each time. The TGI with NCI-H522 lung, with OVCAR-4 ovarian, in the test with OVCAR-5 ovarian, with SF-539 CNS and with SNB-75 CNS was above 100 µM in each case.
Turning to `CC[C@H](C)[C@H]1NC(=O)[C@@H](NC(=O)[C@@H](CC(C)C)N(C)C(=O)C2CCCN2C(=O)[C@H](C)O)[C@@H](C)OC(=O)[C@H](Cc2ccccc2)N(C)C(=O)[C@@H]2CCCN2C(=O)[C@H](CC(C)C)NC(=O)[C@@H](C)C(=O)[C@H](C(C)C)OC(=O)C[C@@H]1O` (stereo partly drawn), the TGI was below 0.00625 µM in the test on ACHN renal; above 62.5 µM in the test on CCRF-CEM leukemia; 0.0769 µM in the test with COLO 205 colon; 0.524 µM in the test with EKVX NSCLC; 0.0639 µM in the test with HOP-62 NSCLC; 0.0114 µM with HS 578T breast. Besides, the TGI in the test with KM12 colon was below 0.00625 µM; with MCF7 breast, 0.0641 µM; with NCI-H522 lung, below 0.00625 µM; in the test on OVCAR-4 ovarian, 0.0078 µM; in the test on OVCAR-5 ovarian it was 0.075 µM; with SNB-75 CNS, below 0.00625 µM.
With `CN(C)Cc1[nH]c2ccccc2c1C(=O)c1ccccc1`, the TGI in the test on ACHN renal, with CCRF-CEM leukemia, in the test with COLO 205 colon, with HOP-62 NSCLC, with IGROV1 ovarian and with KM12 colon was above 100 µM in each case. Besides, the TGI in the test with NCI-H522 lung was above 100 µM; in the test on OVCAR-4 ovarian it was above 100 µM; with OVCAR-5 ovarian, above 100 µM; with SF-539 CNS, above 100 µM; with SNB-75 CNS, 74.9 µM.
